In PMC7914897, “Cytotoxic Potential of a-Azepano- and 3-Amino-3,4-SeCo-Triterpenoids” (International Journal of Molecular Sciences, 2021):
Where two headings read alike, the source gives them in different places.

Columns and labels:
[1] = system: Leukemia subpanel; assay: cells; settings: Homo sapiens
[2] = system: OVCAR-3 (Ovarian cancer); assay: cells; settings: Homo sapiens
[3] = system: Renal Cancer subpanel; assay: NCI-60 screen, subpanel; settings: Homo sapiens
[4] = system: A549/ATCC (NSC lung cancer); assay: NCI-60 screen (SRB, 48 h); settings: Homo sapiens
[5] = system: HOP-62 (NSC lung cancer); assay: NCI-60 screen (SRB, 48 h); settings: Homo sapiens
[6] = system: NCI-H226 (NSC lung cancer); assay: NCI-60 screen (SRB, 48 h); settings: Homo sapiens
[7] = system: NCI-H23 (NSC lung cancer); assay: NCI-60 screen (SRB, 48 h); settings: Homo sapiens
[8] = system: NCI-H322M (NSC lung cancer); assay: NCI-60 screen (SRB, 48 h); settings: Homo sapiens
[9] = system: NCI-H522 (NSC lung cancer); assay: NCI-60 screen (SRB, 48 h); settings: Homo sapiens
[10] = system: COLO 205 (Colon cancer); assay: NCI-60 screen (SRB, 48 h); settings: Homo sapiens
[11] = system: HCC-2998 (Colon cancer); assay: NCI-60 screen (SRB, 48 h)
[12] = system: HCT-15 (Colon cancer); assay: NCI-60 screen (SRB, 48 h); settings: Homo sapiens
[13] = system: SF-268 (CNS cancer); assay: NCI-60 screen (SRB, 48 h); settings: Homo sapiens
[14] = system: SNB-19 (CNS cancer); assay: NCI-60 screen (SRB, 48 h); settings: Homo sapiens
[15] = system: SK-MEL-5 (Melanoma); assay: NCI-60 screen (SRB, 48 h); settings: Homo sapiens
[16] = system: UACC-257 (Melanoma); assay: NCI-60 screen (SRB, 48 h); settings: Homo sapiens
[17] = system: UACC-62 (Melanoma); assay: NCI-60 screen (SRB, 48 h); settings: Homo sapiens
[18] = system: IGROV1 (Ovarian cancer); assay: NCI-60 screen (SRB, 48 h)
[19] = system: OVCAR-5 (Ovarian cancer); assay: NCI-60 screen (SRB, 48 h); settings: Homo sapiens
[20] = system: OVCAR-8 (Ovarian cancer); assay: NCI-60 screen (SRB, 48 h); settings: Homo sapiens
[21] = system: CAKI-1 (Renal cancer); assay: NCI-60 screen (SRB, 48 h)
[22] = system: TK-10 (Renal cancer); assay: NCI-60 screen (SRB, 48 h); settings: Homo sapiens
[23] = system: PC-3 (Prostate cancer); assay: NCI-60 screen (SRB, 48 h); settings: Homo sapiens
[24] = system: DU-145 (Prostate cancer); assay: NCI-60 screen (SRB, 48 h); settings: Homo sapiens
[25] = system: MDA-MB-31/ATCC (Breast cancer); assay: NCI-60 screen (SRB, 48 h); settings: Homo sapiens
[26] = system: HS 578T (Breast cancer); assay: NCI-60 screen (SRB, 48 h); settings: Homo sapiens
[27] = system: panel of approximately 60 cancer cell lines; assay: NCI-60 screen (SRB, 48 h), full panel

## C=C(C)[C@@H]1CCC=C2CC[C@]3(C)[C@H](CC[C@@H]4[C@@]5(C)CCCNC(C)(C)[C@@H]5CC[C@]43C)[C@H]21 [Compound 8]
[1]; 48 h, read-out: TGI MG_MID
  IC (TGI): 5.18 µM
[1]; read-out: GI50 MG_MID
  GI50: 1.48 µM
[1]; read-out: LC50 MG_MID
  CC50: > 100 µM
[2]; OVCAR-3
  GI50: 1.79 µM
[2]; OVCAR-3, 48 h, read-out: TGI
  IC (TGI): 3.4 µM
[3]; 48 h, read-out: TGI MG_MID
  IC (TGI): 3.34 µM
[3]; read-out: GI50 MG_MID
  GI50: 1.79 µM
[3]; read-out: LC50 MG_MID
  CC50: 6.18 µM
[4]; A549
  GI50: 2.02 µM
[4]; A549, 48 h, read-out: TGI
  IC (TGI): 3.73 µM
[4]; A549, read-out: LC50
  CC50: 6.89 µM
[5]; HOP-62
  GI50: 1.82 µM
[5]; HOP-62, 48 h, read-out: TGI
  IC (TGI): 3.41 µM
[5]; HOP-62, read-out: LC50
  CC50: 6.38 µM
[6]; NCI-H226
  GI50: 1.97 µM
[6]; NCI-H226, 48 h, read-out: TGI
  IC (TGI): 3.81 µM
[7]; NCI-H23
  GI50: 1.83 µM
[7]; NCI-H23, 48 h, read-out: TGI
  IC (TGI): 3.4 µM
[8]
  GI50: 1.73 µM
[8]; 48 h, read-out: TGI
  IC (TGI): 3.14 µM
[8]; read-out: LC50
  CC50: 5.7 µM
[9]; NCI-H522
  GI50: 1.93 µM
[9]; NCI-H522, 48 h, read-out: TGI
  IC (TGI): 3.5 µM
[9]; NCI-H522, read-out: LC50
  CC50: 6.35 µM
[10]; COLO 205
  GI50: 1.38 µM
[10]; COLO 205, 48 h, read-out: TGI
  IC (TGI): 2.79 µM
[10]; COLO 205, read-out: LC50
  CC50: 5.64 µM
[11]; HCC-2998, 1 dose 10 µM
  Growth % of the Most Sensitive Cell Lines: −93.75%
[11]; Homo sapiens, HCC 2998
  GI50: 1.31 µM
[11]; Homo sapiens, HCC 2998, 48 h, read-out: TGI
  IC (TGI): 2.76 µM
[12]; HCT-15
  GI50: 1.44 µM
[12]; HCT-15, 48 h, read-out: TGI
  IC (TGI): 2.84 µM
[12]; HCT-15, read-out: LC50
  CC50: 5.59 µM
[13]; SF-268
  GI50: 1.91 µM
[13]; SF-268, 48 h, read-out: TGI
  IC (TGI): 3.64 µM
[14]; SNB-19
  GI50: 1.93 µM
[14]; SNB-19, 48 h, read-out: TGI
  IC (TGI): 3.44 µM
[15]; SK-MEL-5
  GI50: 1.7 µM
[15]; SK-MEL-5, 48 h, read-out: TGI
  IC (TGI): 3.14 µM
[16]; UACC-257
  GI50: 2.19 µM
[16]; UACC-257, 48 h, read-out: TGI
  IC (TGI): 4.29 µM
[16]; UACC-257, read-out: LC50
  CC50: 8.38 µM
[17]; UACC-62
  GI50: 1.73 µM
[17]; UACC-62, 48 h, read-out: TGI
  IC (TGI): 3.16 µM
[17]; UACC-62, read-out: LC50
  CC50: 5.76 µM
[18]; Homo sapiens, IGROV-1
  GI50: 1.69 µM
[18]; Homo sapiens, IGROV-1, 48 h, read-out: TGI
  IC (TGI): 3.28 µM
[18]; Homo sapiens, IGROV-1, read-out: LC50
  CC50: 6.35 µM
[18]; IGROV1, 1 dose 10 µM
  Growth % of the Most Sensitive Cell Lines: −94.22%
[19]; OVCAR-5
  GI50: 1.75 µM
[19]; OVCAR-5, 48 h, read-out: TGI
  IC (TGI): 3.32 µM
[20]; OVCAR-8
  GI50: 1.99 µM
[20]; OVCAR-8, 48 h, read-out: TGI
  IC (TGI): 3.94 µM
[20]; OVCAR-8, read-out: LC50
  CC50: 7.79 µM
[21]; CAKI-1, 1 dose 10 µM
  Growth % of the Most Sensitive Cell Lines: −92.49%
[21]; Homo sapiens, CAKI-1
  GI50: 1.81 µM
[21]; Homo sapiens, CAKI-1, 48 h, read-out: TGI
  IC (TGI): 3.22 µM
[21]; Homo sapiens, CAKI-1, read-out: LC50
  CC50: 5.73 µM
[22]; TK-10
  GI50: 1.88 µM
[22]; TK-10, 48 h, read-out: TGI
  IC (TGI): 3.45 µM
[22]; TK-10, read-out: LC50
  CC50: 6.32 µM
[23]; PC-3
  GI50: 1.65 µM
[23]; PC-3, 48 h, read-out: TGI
  IC (TGI): 3.06 µM
[23]; PC-3, read-out: LC50
  CC50: 5.68 µM
[24]; DU-145
  GI50: 1.77 µM
[24]; DU-145, 48 h, read-out: TGI
  IC (TGI): 3.33 µM
[24]; DU-145, read-out: LC50
  CC50: 6.26 µM
[25]
  GI50: 1.81 µM
[25]; 48 h, read-out: TGI
  IC (TGI): 3.35 µM
[25]; read-out: LC50
  CC50: 6.2 µM
[26]
  GI50: 1.87 µM
[26]; 48 h, read-out: TGI
  IC (TGI): 4.39 µM
[26]; read-out: LC50
  CC50: 15.9 µM
[27]; 1 dose 10 µM
  Positive Cytostatic Effect (cell lines with percent growth 0 to 50 / total): 7/60
  Positive Cytotoxic Effect (cell lines with percent growth < 0 / total): 49/60
  number of cancer cell lines the compound was active against: 55 cell lines
[27]; Homo sapiens, 48 h, read-out: Mean Growth, %
  activity at 10 µM: -46.7%
[27]; Homo sapiens, 48 h, read-out: Range of Growth, %
  activity at 10 µM: -99.5 to 75.9%
[27]; Homo sapiens, 48 h, read-out: TGI MG_MID60, average over all cell lines
  IC (TGI): 3.53 µM
[27]; Homo sapiens, read-out: GI50 MG_MID60
  GI50: 1.73 µM
[27]; Homo sapiens, read-out: GI50 against all human tumor cell lines
  GI50: < 3 µM
[27]; Homo sapiens, read-out: GI50 against the most sensitive cell lines
  GI50: 0.2 to 0.94 µM
